Test system: SCD1 expression
Assay: Inhibition assay: qPCR of SCD1 expression in HepG2 cells (Biological Example 1)
Type: cell-based
Conditions: Homo sapiens, 24 hours; for inhibition at 10 µM: read-out: Inhibition Percentage (%) 10 μM (SCD1 expression); for inhibition at 1 µM: read-out: Inhibition Percentage (%) 1 μM (SCD1 expression)
Method: HepG2 cells were grown in Dulbecco's Modified Eagle Medium (DMEM) containing 5% FBS and antibiotic-antimycotic in a humidified incubator at 37° C. with 5% CO2. All three components were purchased from ThermoFisher Scientific (Catalog numbers are 11995073, 26140079, and 15240062, respectively). Treatments were done in duplicates for each dose of each compound. For control and treated each treatment, 400,000 HepG2 cells were seeded onto 1 well of 24-well plate. After one day in culture, cells were treated with the test compound (1 μM and/or 10 μM, as indicated below in Table 1) for 24 hours in DMEM with 5% FBS. Compounds were diluted using DMSO from 20 mM stocks. Total RNAs were extracted using RNA extraction kit (Cat #: 45001163, Fisher Scientific) or Trizol. If Trizol was used, RNAs were treated with DNase I (cat #: 18068015, ThermoFisher Scientific) before qPCR. RNA concentrations were measured on a Nanodrop. One-step qPCR were performed using SYBR Green One Step qPCR Kit (Cat #: B25002, Biotool). 10 ng RNA was used in each 10-ul reaction. Triplicate reactions were done for each RNA sample. qPCR was performed on an ABI StepOnePlus using the program: Holding stage step 1, 50° C. 3 min, step 2, 95° C. 5 min; Cycling stage (40 cycles) step 1, 95° C. 10 sec, step 2, 60° C. 30 sec. Primer sequence was as follows: SCD1, 5′-[…]-3′/5′-[…]-3′.
All data was measured in HepG2 cells. % inhibition data of SCD1 expression are provided in Table 1. % inhibition at 10 μM is provided as follows: A≥75%; 75%>B≥50%; 50%>C≥10%. % inhibition at 1 μM is provided as follows: A1≥30%; 30%>B1≥2%. NI means no inhibition in the assay at the indicated concentration of compound tested. NT means not tested.

SMILES | inhibition at 10 µM [%] | inhibition at 1 µM [%]
CCCc1cc(-n2cc(-c3ccc(NCC(C)C)nc3)cn2)ccn1 [Example 8, N-isobutyl-5-(1-(2-propylpyridin-4-yl)-1H-pyrazol-4-yl)pyridin-2-amine] | > 75 | –
CCCc1cc(-n2cc(-c3ccc(NS(=O)(=O)C4CC4)cc3Cl)cn2)ccn1 [Example 10, N-(3-chloro-4-(1-(2-propylpyridin-4-yl)-1H-pyrazol-4-yl)phenyl)cyclopropanesulfonamide] | > 75 | ≥ 30
CCCc1cc(-n2cc(-c3ccc(NS(=O)(=O)CC4CC4)cn3)cn2)ccn1 [Example 19, 1-cyclopropyl-N-(6-(1-(2-propylpyridin-4-yl)-1H-pyrazol-4-yl)pyridin-3-yl)methanesulfonamide] | > 75 | 2 to 30
CCCc1cc(-n2cc(-c3ccc(NS(=O)(=O)C4CC4)nc3)cn2)ccn1 [Example 5, N-(5-(1-(2-propylpyridin-4-yl)-1H-pyrazol-4-yl)pyridin-2-yl)cyclopropanesulfonamide] | 10 to 50 | –
CCCc1cc(-n2cc(-c3ccc(NCC4CC4)cc3Cl)cn2)ccn1 [Example 17, 3-chloro-N-(cyclopropylmethyl)-4-(1-(2-propylpyridin-4-yl)-1H-pyrazol-4-yl)aniline] | > 75 | ≥ 30
CCCc1cc(-n2cc(-c3ccc(NCC(C)C)cc3Cl)cn2)ccn1 [Example 14, 3-chloro-N-isobutyl-4-(1-(2-propylpyridin-4-yl)-1H-pyrazol-4-yl)aniline] | > 75 | ≥ 30
CCCc1cc(-n2cc(-c3ncc(NC4CCCC4)cc3Cl)cn2)ccn1 [Example 25, 5-chloro-N-cyclopentyl-6-(1-(2-propylpyridin-4-yl)-1H-pyrazol-4-yl)pyridin-3-amine] | > 75 | ≥ 30
CCCc1cc(-n2cc(-c3ncc(NCC(C)C)cc3Cl)cn2)ccn1 [Example 26, 5-chloro-N-isobutyl-6-(1-(2-propylpyridin-4-yl)-1H-pyrazol-4-yl)pyridin-3-amine] | > 75 | ≥ 30
CCCc1cc(-n2cc(-c3ncc(NS(=O)(=O)CC4CC4)cc3Cl)cn2)ccn1 [Example 29, N-(5-chloro-6-(1-(2-propylpyridin-4-yl)-1H-pyrazol-4-yl)pyridin-3-yl)-1-cyclopropylmethanesulfonamide] | > 75 | 2 to 30
CCCc1cc(-n2nc(C)c(-c3ccc(NC4CCCC4)nc3)c2C)ccn1 [Example 40, N-cyclopentyl-5-(3,5-dimethyl-1-(2-propylpyridin-4-yl)-1H-pyrazol-4-yl)pyridin-2-amine] | 50 to 75 | ≥ 30
CCCc1cc(-n2cc(-c3ccc(NC(C)C)nc3)c(C)n2)ccn1 [Example 56, N-isopropyl-5-(3-methyl-1-(2-propylpyridin-4-yl)-1H-pyrazol-4-yl)pyridin-2-amine] | > 75 | 2 to 30
CCCc1cc(-n2nc(C)c(-c3ccc(NCC(C)C)nc3)c2C)ccn1 [Example 34, 5-(3,5-dimethyl-1-(2-propylpyridin-4-yl)-1H-pyrazol-4-yl)-N-isobutylpyridin-2-amine] | 50 to 75 | 2 to 30
CCCc1cc(-n2cc(-c3ccc(NCC4CC4)cn3)cn2)ccn1 [Example 16, N-(cyclopropylmethyl)-6-(1-(2-propylpyridin-4-yl)-1H-pyrazol-4-yl)pyridin-3-amine] | > 75 | 2 to 30
CCCc1cc(-n2cc(-c3ccc(NS(=O)(=O)C4CC4)cc3)cn2)ccn1 [Example 1, N-(4-(1-(2-propylpyridin-4-yl)-1H-pyrazol-4-yl)phenyl)cyclopropanesulfonamide] | > 75 | –
CCCc1cc(-n2cc(-c3ccc(NC(C)C)cn3)cn2)ccn1 [Example 21, N-isopropyl-6-(1-(2-propylpyridin-4-yl)-1H-pyrazol-4-yl)pyridin-3-amine] | > 75 | 2 to 30
CCCc1cc(-n2nc(C)c(-c3ccc(NC(C)C)nc3)c2C)ccn1 [Example 36, 5-(3,5-dimethyl-1-(2-propylpyridin-4-yl)-1H-pyrazol-4-yl)-N-isopropylpyridin-2-amine] | 50 to 75 | –
CCCc1cc(-n2cc(-c3ncc(NC(C)C)cc3Cl)cn2)ccn1 [Example 24, 5-chloro-N-isopropyl-6-(1-(2-propylpyridin-4-yl)-1H-pyrazol-4-yl)pyridin-3-amine] | > 75 | ≥ 30
CCCc1cc(-n2nc(C)c(-c3ccc(NS(=O)(=O)C(F)(F)F)nc3)c2C)ccn1 [Example 39, N-(5-(3,5-dimethyl-1-(2-propylpyridin-4-yl)-1H-pyrazol-4-yl)pyridin-2-yl)-1,1,1-trifluoromethanesulfonamide] | 10 to 50 | 2 to 30
CCCc1cc(-n2cc(-c3ccc(NC4CCC4)nc3)cn2)ccn1 [Example 33, N-cyclobutyl-5-(1-(2-propylpyridin-4-yl)-1H-pyrazol-4-yl)pyridin-2-amine] | > 75 | ≥ 30
CCCc1cccc(-n2cc(-c3ccc(NS(C)(=O)=O)cc3)cn2)c1 [Example 47, N-(4-(1-(3-propylphenyl)-1H-pyrazol-4-yl)phenyl)methanesulfonamide] | 10 to 50 | –
CCCc1cc(-n2cc(-c3ccc(NS(C)(=O)=O)cn3)cn2)ccn1 [Example 20, N-(6-(1-(2-propylpyridin-4-yl)-1H-pyrazol-4-yl)pyridin-3-yl)methanesulfonamide] | 10 to 50 | –
CCCc1cc(-n2nc(C)c(-c3ccc(NC4CCC4)nc3)c2C)ccn1 [Example 38, N-cyclobutyl-5-(3,5-dimethyl-1-(2-propylpyridin-4-yl)-1H-pyrazol-4-yl)pyridin-2-amine] | > 75 | ≥ 30
CCCc1cc(-n2cc(-c3ncc(NCC4CC4)cc3Cl)cn2)ccn1 [Example 27, 5-chloro-N-(cyclopropylmethyl)-6-(1-(2-propylpyridin-4-yl)-1H-pyrazol-4-yl)pyridin-3-amine] | > 75 | ≥ 30
CCCc1cc(-n2cc(-c3ccc(NC4CCCC4)nc3)cn2)ccn1 [Example 32, N-cyclopentyl-5-(1-(2-propylpyridin-4-yl)-1H-pyrazol-4-yl)pyridin-2-amine] | > 75 | –
CCCc1cc(-n2cc(-c3ccc(NC(C)C)cc3)cn2)ccn1 [Example 6, N-isopropyl-4-(1-(2-propylpyridin-4-yl)-1H-pyrazol-4-yl)aniline] | > 75 | –
CCCc1cc(-n2cc(-c3ccc(NS(C)(=O)=O)cc3Cl)cn2)ccn1 [Example 9, N-(3-chloro-4-(1-(2-propylpyridin-4-yl)-1H-pyrazol-4-yl)phenyl)methanesulfonamide] | > 75 | ≥ 30
CCCc1cc(-n2nc(C)c(-c3ccc(NCC4CC4)nc3)c2C)ccn1 [Example 35, N-(cyclopropylmethyl)-5-(3,5-dimethyl-1-(2-propylpyridin-4-yl)-1H-pyrazol-4-yl)pyridin-2-amine] | 50 to 75 | 2 to 30
CCCc1cc(-n2cc(-c3ccc(NCC(C)C)cc3)cn2)ccn1 [Example 3, N-isobutyl-4-(1-(2-propylpyridin-4-yl)-1H-pyrazol-4-yl)aniline] | > 75 | –
